Here are results for one compound from BindingDB's records for doi:10.1021/jm060166w (University of Tours, 2006).

This assay has as its target 5-hydroxytryptamine receptor 1A (Sus scrofa). Put plainly: Displacement of [3H]8-OH-DPAT from 5HT1A receptor in porcine cortical membrane.

With `Fc1ccc(N2CCN(Cc3cn4ccccc4n3)CC2)cc1` [2-[4-(4-fluorophenyl)piperazin-1-ylmethyl]imidazo[1,2-a]pyridine], the affinity, expressed as Ki, was 3.6 µM.
